In experiment [1] the target is T1, Phosphatidylinositol 3-kinase C2 domain-containing subunit gamma (Homo sapiens) (UniProt O75747).
T1 sequence (whole entry): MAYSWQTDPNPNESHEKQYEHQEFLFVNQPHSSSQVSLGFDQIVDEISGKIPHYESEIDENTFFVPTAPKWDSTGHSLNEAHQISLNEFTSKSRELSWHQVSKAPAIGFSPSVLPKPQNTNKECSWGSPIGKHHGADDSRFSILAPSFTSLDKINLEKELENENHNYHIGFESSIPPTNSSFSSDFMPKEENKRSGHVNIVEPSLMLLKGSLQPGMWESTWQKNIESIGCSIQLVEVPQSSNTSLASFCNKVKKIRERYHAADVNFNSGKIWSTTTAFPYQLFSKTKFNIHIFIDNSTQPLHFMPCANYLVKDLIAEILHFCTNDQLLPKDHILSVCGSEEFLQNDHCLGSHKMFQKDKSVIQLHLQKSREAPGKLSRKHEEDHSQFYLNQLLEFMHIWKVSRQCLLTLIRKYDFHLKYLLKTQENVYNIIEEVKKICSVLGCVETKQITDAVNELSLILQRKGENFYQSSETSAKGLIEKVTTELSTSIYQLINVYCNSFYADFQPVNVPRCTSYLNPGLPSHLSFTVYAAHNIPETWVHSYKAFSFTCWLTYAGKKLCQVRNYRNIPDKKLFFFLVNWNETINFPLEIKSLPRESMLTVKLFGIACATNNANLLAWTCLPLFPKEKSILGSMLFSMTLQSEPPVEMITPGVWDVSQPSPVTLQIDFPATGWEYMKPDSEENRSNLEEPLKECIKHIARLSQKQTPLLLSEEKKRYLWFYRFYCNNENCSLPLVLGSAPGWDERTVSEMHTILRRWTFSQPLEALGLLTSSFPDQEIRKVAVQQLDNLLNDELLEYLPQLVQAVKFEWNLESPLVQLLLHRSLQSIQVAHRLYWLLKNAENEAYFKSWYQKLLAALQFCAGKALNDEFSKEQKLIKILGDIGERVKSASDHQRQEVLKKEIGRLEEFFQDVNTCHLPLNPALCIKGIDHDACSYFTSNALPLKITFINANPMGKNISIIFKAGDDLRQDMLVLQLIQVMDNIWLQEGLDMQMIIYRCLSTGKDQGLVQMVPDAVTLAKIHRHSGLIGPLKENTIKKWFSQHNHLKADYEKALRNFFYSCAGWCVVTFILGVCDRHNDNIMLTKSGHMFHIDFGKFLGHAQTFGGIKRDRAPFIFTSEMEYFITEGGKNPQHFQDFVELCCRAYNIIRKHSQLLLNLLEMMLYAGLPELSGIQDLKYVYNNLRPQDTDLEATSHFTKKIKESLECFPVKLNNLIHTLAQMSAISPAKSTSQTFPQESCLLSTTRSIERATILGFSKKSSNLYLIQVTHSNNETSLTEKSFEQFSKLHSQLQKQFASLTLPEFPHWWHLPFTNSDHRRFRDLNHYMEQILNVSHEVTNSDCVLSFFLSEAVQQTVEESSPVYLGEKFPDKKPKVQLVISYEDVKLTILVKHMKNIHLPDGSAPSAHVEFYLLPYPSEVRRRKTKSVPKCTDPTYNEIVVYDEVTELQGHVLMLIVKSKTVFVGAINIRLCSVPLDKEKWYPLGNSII
Kind of experiment: Selectivity interaction (Kinase panel (Eurofins)) EUB0001564a PIK3C2G. To be noted: at 1 µM.

Experiment [2] has as its target T2, Cytoplasmic tyrosine-protein kinase BMX (Homo sapiens) (UniProt P51813).
T2 sequence (whole entry): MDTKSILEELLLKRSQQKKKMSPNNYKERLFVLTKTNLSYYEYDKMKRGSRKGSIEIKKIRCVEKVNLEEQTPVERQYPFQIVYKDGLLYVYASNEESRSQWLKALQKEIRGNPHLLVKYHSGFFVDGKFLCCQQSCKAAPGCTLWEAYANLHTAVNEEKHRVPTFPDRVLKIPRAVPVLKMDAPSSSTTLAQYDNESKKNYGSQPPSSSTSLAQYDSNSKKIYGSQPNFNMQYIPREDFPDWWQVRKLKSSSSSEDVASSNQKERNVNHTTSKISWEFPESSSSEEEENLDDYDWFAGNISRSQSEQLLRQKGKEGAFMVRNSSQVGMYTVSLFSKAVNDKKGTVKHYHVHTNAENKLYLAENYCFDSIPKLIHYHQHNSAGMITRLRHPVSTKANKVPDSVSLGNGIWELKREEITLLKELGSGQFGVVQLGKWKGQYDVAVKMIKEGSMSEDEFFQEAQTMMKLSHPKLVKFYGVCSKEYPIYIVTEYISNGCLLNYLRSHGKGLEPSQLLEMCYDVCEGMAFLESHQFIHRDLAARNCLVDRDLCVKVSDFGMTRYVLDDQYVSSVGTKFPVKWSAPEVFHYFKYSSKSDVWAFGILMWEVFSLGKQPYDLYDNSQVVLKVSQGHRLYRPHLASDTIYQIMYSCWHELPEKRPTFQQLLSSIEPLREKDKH
Kind of experiment: Selectivity interaction (KinomeScan (DiscoverX)) EUB0001619a BMX. To be noted: at 1 µM.

Experiment [3] concerns Mast/stem cell growth factor receptor Kit (Homo sapiens), P10721 [V559D,V654A]. Conditions: at 10 µM.
Chain of Mast/stem cell growth factor receptor Kit (Homo sapiens), P10721 [V559D,V654A] (P10721 whole entry V559D/V654A): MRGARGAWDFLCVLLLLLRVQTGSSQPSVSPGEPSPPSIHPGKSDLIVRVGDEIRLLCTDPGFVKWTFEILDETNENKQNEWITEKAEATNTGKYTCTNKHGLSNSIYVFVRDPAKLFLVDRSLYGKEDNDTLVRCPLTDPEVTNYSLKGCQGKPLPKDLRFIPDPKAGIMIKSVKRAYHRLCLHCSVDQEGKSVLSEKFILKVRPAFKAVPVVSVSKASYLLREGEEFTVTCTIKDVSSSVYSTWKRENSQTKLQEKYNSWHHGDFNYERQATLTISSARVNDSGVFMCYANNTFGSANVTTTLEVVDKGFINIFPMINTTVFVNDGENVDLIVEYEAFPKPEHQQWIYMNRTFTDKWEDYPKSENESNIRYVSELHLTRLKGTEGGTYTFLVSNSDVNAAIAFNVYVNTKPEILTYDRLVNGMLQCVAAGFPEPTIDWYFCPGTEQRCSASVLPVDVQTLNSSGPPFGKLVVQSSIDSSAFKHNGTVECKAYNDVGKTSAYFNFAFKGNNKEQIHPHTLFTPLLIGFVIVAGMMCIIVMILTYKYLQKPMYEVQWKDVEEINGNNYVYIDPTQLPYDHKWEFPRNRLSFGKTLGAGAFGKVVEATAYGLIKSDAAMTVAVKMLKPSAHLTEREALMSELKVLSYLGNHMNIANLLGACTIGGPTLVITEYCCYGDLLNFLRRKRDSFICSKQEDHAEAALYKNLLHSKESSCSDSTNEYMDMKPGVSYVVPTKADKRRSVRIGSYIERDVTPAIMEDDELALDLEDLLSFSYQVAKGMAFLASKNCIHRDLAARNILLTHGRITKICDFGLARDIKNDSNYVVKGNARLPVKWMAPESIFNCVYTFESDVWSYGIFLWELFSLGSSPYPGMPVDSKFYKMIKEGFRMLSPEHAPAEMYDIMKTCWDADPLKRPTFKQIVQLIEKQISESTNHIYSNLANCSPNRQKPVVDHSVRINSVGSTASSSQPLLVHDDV
Experiment [4] addresses Phosphatidylinositol 4-kinase beta (Homo sapiens, UniProt Q9UBF8). To be noted: at 10 µM.
Experiment [5] concerns the target Ribosomal protein S6 kinase beta-1 (Homo sapiens, UniProt P23443). To be noted: at 10 µM.
The target in experiment [6] is T3, Scaffold protein ILK (Homo sapiens) (UniProt Q13418).
T3 sequence (whole entry): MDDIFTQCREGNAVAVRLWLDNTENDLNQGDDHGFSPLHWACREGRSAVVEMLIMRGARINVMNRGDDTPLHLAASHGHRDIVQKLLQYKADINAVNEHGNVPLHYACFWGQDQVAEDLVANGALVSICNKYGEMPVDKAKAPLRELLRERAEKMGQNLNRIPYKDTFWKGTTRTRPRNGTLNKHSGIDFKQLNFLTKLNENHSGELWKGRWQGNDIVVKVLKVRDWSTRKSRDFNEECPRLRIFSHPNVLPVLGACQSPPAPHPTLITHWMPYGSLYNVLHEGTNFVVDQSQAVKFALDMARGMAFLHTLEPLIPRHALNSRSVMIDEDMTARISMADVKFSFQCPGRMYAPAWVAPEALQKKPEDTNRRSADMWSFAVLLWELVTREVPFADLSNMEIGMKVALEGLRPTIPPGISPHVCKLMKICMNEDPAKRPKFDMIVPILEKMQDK
Kind of experiment: Selectivity interaction (ActivX KiNativ screen (kinase selectivity in THP-1 cell lysates)) EUB0000639a ILK. To be noted: lysate, at 5 µM. In kind it is subcellular.

Experiment [7] deals with Ribosomal protein S6 kinase alpha-4 (Homo sapiens) (UniProt O75676). Kind of experiment: Selectivity interaction (KinomeScan (DiscoverX)) EUB0000655a RPS6KA4. To be noted: at 10 µM.
Chain of Ribosomal protein S6 kinase alpha-4 (Homo sapiens) (O75676 whole entry, looked up): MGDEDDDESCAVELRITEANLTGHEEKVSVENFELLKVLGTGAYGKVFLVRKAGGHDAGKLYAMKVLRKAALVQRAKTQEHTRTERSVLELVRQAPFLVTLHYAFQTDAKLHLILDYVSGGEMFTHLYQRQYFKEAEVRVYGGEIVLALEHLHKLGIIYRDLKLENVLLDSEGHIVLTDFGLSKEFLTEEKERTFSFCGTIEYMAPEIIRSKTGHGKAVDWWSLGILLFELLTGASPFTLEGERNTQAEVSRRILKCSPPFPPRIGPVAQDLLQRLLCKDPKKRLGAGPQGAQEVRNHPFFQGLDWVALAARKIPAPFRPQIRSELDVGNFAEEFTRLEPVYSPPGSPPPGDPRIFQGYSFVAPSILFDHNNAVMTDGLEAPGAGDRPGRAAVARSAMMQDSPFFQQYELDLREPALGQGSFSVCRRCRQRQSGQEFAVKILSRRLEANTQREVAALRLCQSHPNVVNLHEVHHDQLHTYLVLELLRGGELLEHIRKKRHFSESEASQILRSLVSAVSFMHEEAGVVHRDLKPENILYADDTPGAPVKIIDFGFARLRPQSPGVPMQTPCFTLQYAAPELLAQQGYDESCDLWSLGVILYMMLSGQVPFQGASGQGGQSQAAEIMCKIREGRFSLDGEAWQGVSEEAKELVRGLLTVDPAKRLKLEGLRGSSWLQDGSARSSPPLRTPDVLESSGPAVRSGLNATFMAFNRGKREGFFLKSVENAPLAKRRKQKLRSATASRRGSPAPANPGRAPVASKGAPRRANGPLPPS
Experiment [8] concerns the target Protein-tyrosine kinase 2-beta (Homo sapiens) (UniProt Q14289). Kind of experiment: Selectivity interaction (KinomeScan (DiscoverX)) EUB0001079a PTK2B. Conditions: at 1 µM.

Chain of Phosphatidylinositol 4-kinase beta (Q9UBF8 2-816 limits assumed): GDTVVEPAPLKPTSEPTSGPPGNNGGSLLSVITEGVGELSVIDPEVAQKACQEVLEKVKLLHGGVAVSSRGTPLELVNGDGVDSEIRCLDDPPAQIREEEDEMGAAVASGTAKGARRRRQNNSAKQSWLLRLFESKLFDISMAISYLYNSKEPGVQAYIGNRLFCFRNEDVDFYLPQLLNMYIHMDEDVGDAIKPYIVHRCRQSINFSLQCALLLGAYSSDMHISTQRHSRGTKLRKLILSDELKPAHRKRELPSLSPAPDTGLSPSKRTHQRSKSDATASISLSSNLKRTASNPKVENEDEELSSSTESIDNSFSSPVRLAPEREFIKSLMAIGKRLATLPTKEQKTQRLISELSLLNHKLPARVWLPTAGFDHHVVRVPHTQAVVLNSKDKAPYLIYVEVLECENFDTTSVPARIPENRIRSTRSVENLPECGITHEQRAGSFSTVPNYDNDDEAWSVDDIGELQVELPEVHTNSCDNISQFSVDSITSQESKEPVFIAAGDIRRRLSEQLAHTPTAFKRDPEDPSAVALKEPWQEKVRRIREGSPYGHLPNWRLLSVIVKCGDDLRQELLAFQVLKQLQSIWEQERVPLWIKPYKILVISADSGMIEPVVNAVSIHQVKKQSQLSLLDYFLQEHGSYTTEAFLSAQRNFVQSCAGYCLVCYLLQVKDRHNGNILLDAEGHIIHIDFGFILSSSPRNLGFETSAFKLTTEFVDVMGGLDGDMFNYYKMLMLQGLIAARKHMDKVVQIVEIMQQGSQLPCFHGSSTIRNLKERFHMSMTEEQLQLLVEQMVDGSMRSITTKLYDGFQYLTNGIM
Chain of Ribosomal protein S6 kinase beta-1 (P23443 whole entry, looked up): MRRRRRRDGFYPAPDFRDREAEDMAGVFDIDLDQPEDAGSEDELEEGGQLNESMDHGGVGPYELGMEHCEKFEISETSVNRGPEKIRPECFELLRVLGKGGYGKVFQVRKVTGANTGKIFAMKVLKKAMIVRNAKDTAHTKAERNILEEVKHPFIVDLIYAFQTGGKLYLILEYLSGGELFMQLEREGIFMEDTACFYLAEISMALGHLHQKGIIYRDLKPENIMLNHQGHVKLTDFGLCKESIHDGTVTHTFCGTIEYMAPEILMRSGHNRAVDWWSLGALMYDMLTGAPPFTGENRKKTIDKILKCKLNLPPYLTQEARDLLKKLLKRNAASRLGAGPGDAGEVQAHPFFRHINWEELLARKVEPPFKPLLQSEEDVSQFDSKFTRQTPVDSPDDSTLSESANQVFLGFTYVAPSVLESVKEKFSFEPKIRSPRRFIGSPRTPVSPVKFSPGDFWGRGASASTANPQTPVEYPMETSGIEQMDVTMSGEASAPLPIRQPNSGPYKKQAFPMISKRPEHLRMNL
Chain of Protein-tyrosine kinase 2-beta (Homo sapiens) (Q14289 whole entry, looked up): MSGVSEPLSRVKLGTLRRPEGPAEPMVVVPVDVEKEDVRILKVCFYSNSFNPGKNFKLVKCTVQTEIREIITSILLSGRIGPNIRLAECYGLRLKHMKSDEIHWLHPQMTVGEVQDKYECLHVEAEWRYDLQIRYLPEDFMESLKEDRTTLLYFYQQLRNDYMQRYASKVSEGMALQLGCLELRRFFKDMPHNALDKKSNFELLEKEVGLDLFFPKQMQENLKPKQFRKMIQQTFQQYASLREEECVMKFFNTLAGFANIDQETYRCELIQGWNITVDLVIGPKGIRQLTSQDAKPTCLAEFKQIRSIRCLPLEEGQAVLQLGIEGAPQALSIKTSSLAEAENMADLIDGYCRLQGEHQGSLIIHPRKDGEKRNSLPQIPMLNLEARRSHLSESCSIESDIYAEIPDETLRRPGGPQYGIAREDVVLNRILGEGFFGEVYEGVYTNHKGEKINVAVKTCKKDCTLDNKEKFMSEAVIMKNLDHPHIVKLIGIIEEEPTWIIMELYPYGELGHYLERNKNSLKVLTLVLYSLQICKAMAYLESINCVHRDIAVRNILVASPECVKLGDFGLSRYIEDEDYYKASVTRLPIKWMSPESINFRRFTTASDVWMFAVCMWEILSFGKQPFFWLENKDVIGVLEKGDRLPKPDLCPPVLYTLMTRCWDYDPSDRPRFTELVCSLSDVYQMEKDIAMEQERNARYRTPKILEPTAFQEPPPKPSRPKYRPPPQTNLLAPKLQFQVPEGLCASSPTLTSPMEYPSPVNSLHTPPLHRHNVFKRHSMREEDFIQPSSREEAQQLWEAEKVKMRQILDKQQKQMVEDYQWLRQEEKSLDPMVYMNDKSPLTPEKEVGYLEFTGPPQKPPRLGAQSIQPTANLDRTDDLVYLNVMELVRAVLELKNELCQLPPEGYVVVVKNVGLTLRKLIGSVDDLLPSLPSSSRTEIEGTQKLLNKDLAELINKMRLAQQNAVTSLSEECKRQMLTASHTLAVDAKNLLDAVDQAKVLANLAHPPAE

Consider `CC[C@@H](Nc1c(C#N)c(-c2ccc(-c3cccc(C)c3F)cc2)nc2cnccc12)C(=O)O` [BAY-091], for which the % of inhibition in experiment [1] came out at 25.4%.

Compound `N#Cc1cccc(-c2c[nH]c3ncnc(N4CCOCC4)c23)c1` returned a % of control in experiment [2] of 97%. For the compound `CCN(CC)CCCCNc1ncc2cc(-c3cc(OC)cc(OC)c3)c(NC(=O)NC(C)(C)C)nc2n1`, in experiment [3], the % of control was 100%. For the compound `Cc1cc([C@@H](C)Nc2ccccc2C(=O)O)c2nc(N3CCOCC3)cc(=O)n2c1` [AZD-6482], the % of control in experiment [4] turned out to be 100%; in experiment [5] it was 72%.

As for `CC[C@@H]1[C@H](F)C(=O)N[C@@H]1COc1nccc2cc(C(N)=O)c(OC)cc12` [ZIMLOVISERTIB], in experiment [6], the % of inhibition is -24.1%. In experiment [7], `CN(C)CCOc1ccc(-c2nc(-c3ccncc3)c(-c3ccc4c(c3)CC/C4=N\O)[nH]2)cc1` came in with a % of control of 81%.

In experiment [8], `Nc1cnc(N2CCc3cc(S(=O)(=O)Nc4c(F)cc(Cl)cc4F)cc(N4CCCC4=O)c32)nc1` [TP-020n] had a % of control of 100%.

(Values after ChEMBL document CHEMBL5465560, “Selectivity Literature for EUbOPEN Chemogenomic Library” (2024).)
